Several values for one entry are separate records, joined by “and”; a condition that tells them apart may be missing. Identical values can stand only once.
How the values were obtained:
[1] = test system: cytokines and chemokines in PBMCs from HIV-infected donors; test: Induction of cytokines/chemokines ex vivo, Luminex (Example 211); assay type: cell-based, human; settings: PBMC supernatant day 2
Procedure: PBMCs from HIV-infected donors on suppressive cART were isolated, as described previously, and immediately added to tissue culture plates pre-equilibrated at 37° C. with media containing DMSO or the compound of Example 49 (GS-9620) at concentrations from 0.1 nM or 10.0 uM. At day 2 after treatment, cell-free culture supernatants were collected and frozen at −80C for subsequent analysis. Frozen supernatants were thawed at room temperature, and the cytokines and chemokines indicated were quantitated with a custom multiplexed xMAP Luminex® assay following the manufacturer's instructions (Thermo Fisher Scientific Inc., Grand Island, N.Y., custom-designed kit).

[2] = test system: HIV in PBMCs from HIV-infected donors; human Interferon α/β receptor chain 2 blocked; test: HIV activation with and without IFNα/β receptor block (Example 212); assay type: cell-based; settings: Example 49 10 nM to 10 uM with anti-IFNα/β receptor chain 2 mAb MMHAR-2 at 1:500; day 4; 4 donors; p<0.05
Procedure: PBMCs from HIV-infected donors on suppressive cART were isolated, as before, and treated with the compound of Example 49 (GS-9620) at the doses indicated (10 nM to 10 uM) in the presence or absence of a mouse monoclonal antibody (clone MMHAR-2) against the human Interferon α/β receptor chain 2 (PBL Assay Science, Piscataway, N.J., Cat #21385-1) used at 1:500 dilution. At day 4 after treatment, cell-free culture supernatant was collected and HIV viral RNA was quantitated using the AmliPrep/COBAS® TaqMan® assay. Fold HIV activation in PBMCs from two HIV-infected donors treated with the compound of Example 49 alone and in combination with the anti-IFNα/β mAB (IFNAR block) is depicted in FIG. 8.

[3] = test system: HIV in PBMCs from HIV-infected donors on suppressive cART; test: Activation of HIV by Example 49 ex vivo in PBMCs (Example 210); assay type: cell-based, human; settings: N = 18 donors, day 4
Procedure: PBMCs from 18 HIV-infected donors (Donor IDs 152-169) on suppressive cART were isolated, as described previously in Materials and Methods (PBMC Isolation), and immediately added to tissue culture plates pre-equilibrated at 37° C. with media containing DMSO or the compound of Example 49 (GS-9620) at 0.1 uM or 1.0 uM. At day 4 after treatment, cell-free culture supernatants were collected and HIV viral RNA was quantitated using the automated COBAS® AmpliPrep/COBAS® TaqMan® HIV-1 Test, v2.0 system (Roche Diagnostics, Indianapolis, Ind.), as described previously in Materials and Methods (HIV-1 Activation Assay). Geometric mean fold HIV activations from three independent wells for each donor and each condition were expressed as a ratio of HIV-1 RNA copies/ml detected in culture supernatants from TLR7 agonist treated and DMSO treated wells. Fold HIV activation values were plotted using GraphPad Prism software (GraphPad, San Diego, Calif.) and can be seen in FIG. 7. The dashed line indicates 2-fold induction.

[4] = test system: HIV-infected CD4 T cells (HIV-1 clinical isolate HT593); test: Killing of HIV-infected CD4 T cells by combination of Example 49 and HIV antibody PGT121 (Example 218); assay type: cell-based, human; settings: 5 days, combined with PGT121, two donors
Procedure: PBMCs from […] (AllCells: Donor IDs A4593, A4596, A4606) were isolated, as described previously. PBMCs were treated with DMSO or with the compound of Example 49 (GS-9620) at 0.1 uM or 1 uM in replicate culture sets of 8 for 5 days. In parallel, total CD4 T cells were isolated from each donors' PBMCs using the EasySep Human CD4+ T cell Enrichment Kit (Stemcell Technologies). CD4 T cells were infected in bulk with the HIV-1 clinical isolate HT593 (NIH AIDS Reagent Program) using 50-100 ng p24/million CD4 T cells by spinfecting at 1200×g for 2 hours. HIV-infected CD4 T cells were incubated for 5 days at 37° C. in RPMI plus 10% FBS with 30 U/mL IL-2 (Invitrogen). After 5 days in culture, HIV-infected CD4 T cells were washed, counted, and added to PBMCs from the autologous donor at a ratio of 20 PBMCs to 1 CD4 T cell (20:1). To each co-culture replicate, HIV antibody PGT121 (Gilead Sciences, Inc.) was added at concentrations from 6.7e-5 nM to 6.7e2 nM. Co-cultures were incubated with or without HIV antibody for 1 day at 37° C.
Co-cultures were collected and stained with live/dead Fixable Aqua Dead Cell Stain (Invitrogen) and PE-Cy7-labeled antibody to CD4 (BD Biosciences). Cells were fixed and permeabilized, as described previously, and stained with PE labeled antibody to HIV Gag protein p24 (Beckman Coulter). FACS was performed on a LSR Fortessa (BD Biosciences) and data analysis was done with FlowJo software (TreeStar). Data was plotted and statistical analysis was done with GraphPad Prism software (GraphPad). Killing of HIV-infected CD4 T cells was calculated as a reduction of CD4+p24+ T cells at each PGT121 concentration relative to cultures without PGT121.

Question: Which results are given for `CCCCOc1nc(N)c2c(n1)N(Cc1cccc(CN3CCCC3)c1)CC(=O)N2` [Example 49]?
Answer: BAFF fold induced vs. DMSO control [1]: <2-fold; I-TAC fold induced vs. DMSO control [1]: >100-fold; IFNα fold induced vs. DMSO control [1]: >100-fold; IFNβ fold induced vs. DMSO control [1]: <2-fold; IFNω fold induced vs. DMSO control [1]: >100-fold; IL-1 RA fold induced vs. DMSO control [1]: >100-fold; IL-4 fold induced vs. DMSO control [1]: <2-fold; IL-5 fold induced vs. DMSO control [1]: <2-fold; IL-6 fold induced vs. DMSO control [1]: >100-fold; IL-10 fold induced vs. DMSO control [1]: >100-fold; IL-12 (p70) fold induced vs. DMSO control [1]: <2-fold; IL-13 fold induced vs. DMSO control [1]: <2-fold; IL-17 fold induced vs. DMSO control [1]: <2-fold; IL-18 fold induced vs. DMSO control [1]: <2-fold; IL-27 fold induced vs. DMSO control [1]: <2-fold; IL-31 fold induced vs. DMSO control [1]: <2-fold; IP-10 fold induced vs. DMSO control [1]: >100-fold; MCP-1 fold induced vs. DMSO control [1]: >100-fold; MIP-1α fold induced vs. DMSO control [1]: >100-fold; MIP-1β fold induced vs. DMSO control [1]: >100-fold; MMP-1 fold induced vs. DMSO control [1]: <2-fold; SCD40L fold induced vs. DMSO control [1]: <2-fold; TNFS10 fold induced vs. DMSO control [1]: <2-fold; mean maximal reduction of fold HIV activation by IFNAR block [2]: 85%; Fold geometric mean (HIV activation) ([3]; 100 nM): 9.3 fold; Fold range (HIV activation) ([3]; 100 nM): 2.7-26.6 fold; N (%) with ≥2-fold activation ([3]; 100 nM): 10 (56) N (%); Fold geometric mean (HIV activation) ([3]; 1,000 nM): 6.5 fold; Fold range (HIV activation) ([3]; 1,000 nM): 2.0-21.5 fold; N (%) with ≥2-fold activation ([3]; 1,000 nM): 11 (61) N (%); Fold geometric mean (HIV activation) ([3]; 100 and/or 1,000 nM): 9.1 fold; Fold range (HIV activation) ([3]; 100 and/or 1,000 nM): 2.0-26.6 fold; N (%) with ≥2-fold activation ([3]; 100 and/or 1,000 nM): 13 (72) N (%); increase of AUC relative to DMSO controls ([4]; Example 49 0.1 uM): 32% and 52%; increase of maximal killing relative to DMSO controls ([4]; Example 49 0.1 uM): 30% and 38%; increase of AUC relative to DMSO controls ([4]; Example 49 1 uM): 52% and 73%; increase of maximal killing relative to DMSO controls ([4]; Example 49 1 uM): 50% and 48%

Source: patent US11116774B2, “Modulators of toll-like receptors for the treatment of HIV” (Gilead Sciences, Inc., priority 2014, dated 2021)
